Four molecules from patent EP4596556A1, “SPIROCYCLIC DERIVATIVE-CONTAINING SALT OR CRYSTAL FORM, AND PREPARATION METHOD THEREFOR AND USE THEREOF” (Shujing Biopharma Co., Ltd, priority 2022, dated 2024) can be followed below.

Values after ≈ are worked out from the molar mass of the structure shown. Counter-ions that a name gives are not always drawn. Like-named read-outs stand apart in the source and are kept apart here.

The target of one data set is T1, TAAR1 receptor (Homo sapiens, UniProt Q96RJ0).
T1 sequence (Q96RJ0 1-339): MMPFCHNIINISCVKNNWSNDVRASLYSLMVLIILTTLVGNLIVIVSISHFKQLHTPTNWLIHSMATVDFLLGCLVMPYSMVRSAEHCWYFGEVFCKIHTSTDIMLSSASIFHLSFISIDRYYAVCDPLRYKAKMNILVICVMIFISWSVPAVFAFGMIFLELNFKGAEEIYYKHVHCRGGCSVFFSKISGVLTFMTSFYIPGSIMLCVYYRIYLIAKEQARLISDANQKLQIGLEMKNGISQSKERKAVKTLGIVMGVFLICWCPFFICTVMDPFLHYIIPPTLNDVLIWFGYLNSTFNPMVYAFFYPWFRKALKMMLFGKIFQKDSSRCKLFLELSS
In words: TAAR1 receptor cAMP agonist test. In kind it is cell-based. The source says:
The cAMP detection kit was purchased from Cisbio; the […] cell line stably expressing TAAR1 receptor was constructed by Shanghai Shujing Biotechnology Co., Ltd.; IBMX was purchased from Sigma; Phenethylamine (PEA); ProxiPlate-384 well plate was purchased from PerkinElmer; HBSS was purchased from Thermo Fisher Scientific Company.
Activation rate (activity%)=(negative control ratio-compound ratio)/(negative control ratio-positive control ratio)×100%.
The EC50 values of the compounds were calculated using the four-parameter fitting model log(agonist)vs.response--Variable slope(four parameters) in GraphPad Prism.

Data set [1] deals with high spontaneous activity induced by MK-801 in mice. In words: Inhibition of high spontaneous activity induced by MK-801 in mice. Format: in vivo. Conditions: p.o., MK-801 0.3 mg/kg i.p., male C57Bl/6J mice. On the procedure:
Compounds to be tested: compounds in the examples of the present application, self-made.
3.2.1 Grouping of animals: before the start of the experiment, animals were randomly grouped according to body weight.
3.2.2 Animal adaptation: before the experiment, the mice were first adapted to the experimental environment for at least 1 hour. That is, the animals were transferred from the breeding room to the laboratory and moved freely in the cage.
(§1) Drug preparation: taking the compound to be tested, adding pure water and performing ultrasonication.
The blank control group was injected with normal saline.
(§2) The activities of these animals (movement distance in the test box) were automatically recorded by the camera, and analyzed with ANY MAZE software, and the ED50 values were calculated.

Data set [2] deals with high spontaneous activity induced by PCP in mice. As to the kind of experiment: Inhibition of high spontaneous activity induced by PCP in mice. The conditions noted are these: p.o., PCP 5 mg/kg i.p., male C57Bl/6J mice. Format: in vivo. On the procedure: Compounds to be tested: compounds of the examples of the present application, self-made.
That is, animals were transferred from the feeding room to the laboratory, and moved freely in the cage.
as §1
T0 min intraperitoneal injection of modeling drug: 30 minutes after compound administration, the mice were taken out, and administered with PCP (5 mg/kg) by intraperitoneal injection. The blank control group was injected with pure water. After the administration of PCP, the animals were immediately put back into the test box, and the test was continued for 60 minutes.
as §2

The target in another data set is T2, 5-HT1A receptor (Homo sapiens, UniProt P08908).
T2 sequence (P08908 1-422): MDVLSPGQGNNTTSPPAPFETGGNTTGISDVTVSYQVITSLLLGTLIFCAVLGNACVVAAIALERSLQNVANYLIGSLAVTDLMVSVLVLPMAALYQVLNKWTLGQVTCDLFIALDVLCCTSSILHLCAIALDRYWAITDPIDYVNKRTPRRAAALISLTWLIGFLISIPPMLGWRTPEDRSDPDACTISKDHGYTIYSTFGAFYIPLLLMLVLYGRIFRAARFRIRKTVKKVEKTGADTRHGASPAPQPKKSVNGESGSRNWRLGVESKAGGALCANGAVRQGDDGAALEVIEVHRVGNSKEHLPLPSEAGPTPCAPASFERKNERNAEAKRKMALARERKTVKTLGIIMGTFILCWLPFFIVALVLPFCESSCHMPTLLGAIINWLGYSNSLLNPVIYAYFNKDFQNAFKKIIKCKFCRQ
As to the kind of experiment: 5-HT1A receptor cAMP agonist test. Format: cell-based. The source says: The cAMP detection kit was purchased from Cisbio; the HEK293 cell line stably expressing 5-HT1A receptor was constructed by Shanghai Shujing Biotechnology Co., Ltd.; Serotonin, Forskolin and IBMX were purchased from Sigma; ProxiPlate-384-well plates was purchased from PerkinElmer; HBSS was purchased from Thermo Fisher Scientific.
Activation rate (activity%)=(negative control ratio-compound ratio)/(negative control ratio-positive control ratio)×100%
The EC50 values of the compounds were calculated using the four-parameter fitting model log(agonist)vs. response--Variable slope(four parameters) in Graph Pad Prism.

A short description of data set [3]: Mouse pharmacokinetic experiment, oral gavage. In kind it is in vivo. Conditions: ICR mice, 5 mg/kg, plasma. The procedure: The mice were administered by oral gavage, and the plasma concentrations of each hydrochloride crystal form of Compound A in mice were determined, the PK parameters were calculated, and the pharmacokinetics were evaluated.
• (1) Experimental samples: hydrochloride crystal forms I, II, and III of Compound A of the present application, self-made. • (2) Experimental animals: ICR mice, SPF grade, male, Shanghai SLAC Laboratory Animal Co., Ltd.
The compound was administered via oral gavage at a dosage of 5 mg/kg. ICR mice were stratified by body weight and randomly divided into groups of 3 mice each, and fasted overnight before the experiment. Administering according to the prescribed dosage and schedule, and […] of blood was taken from the mandibular vein or saphenous vein of mice by cross sampling at fixed time points to a sample tube containing anticoagulant sodium heparin and placed in wet ice, centrifuging at 4000 r · min^-1 for 10 minutes to separate the plasma for LC-MS analysis.
The measured blood drug concentration-time data was substituted into the Winnonlin 7.0 program to calculate the main pharmacokinetic parameters. Table 3.3: Results of mouse pharmacokinetic experiments

Data set [4] is described as follows: Equilibrium solubility in water for 24 hours. In kind it is physicochemical. On the procedure:
Investigating the equilibrium solubility of each hydrochloride crystal form of Compound A in water for 24 hours.
Excess samples of hydrochloride crystal form I and hydrochloride crystal form II of Compound A were weighed and placed in different 10 mL centrifuge tubes, and 1 mL of deionized water was added, sealed with a parafilm, shaking at a constant temperature of 37°C and 150 rpm for 24 hours; after passing through a 0.45 µm organic filter, the sample was diluted and injected for HPLC analysis.

Data set [5] in a line: Solid (chemical) stability under high temperature, high humidity and light. Format: physicochemical. The procedure: Investigating the chemical stability of each hydrochloride crystal form of Compound A under high temperature, high humidity, and light conditions.
Appropriate amounts of hydrochloride crystal form I and hydrochloride crystal form II of Compound A were weighed and placed in weighing dishes respectively; three samples for each salt were prepared, and placed respectively in a oven at 60°C, a drying dish with RH 92.5%, and a stability test chamber with an illumination condition of 5000 1x for 85 days. After mixing all samples evenly at day 0, day 10, day 20, and day 85, samples were taken and dissolved in acetonitrile and water, and the content and impurity changes were detected by HPLC-related substance detection method.

A short description of data set [6]: Solution stability at different pH (HPLC content, 0-24 hours). Format: physicochemical. Conditions: after 24 hours at pH 1.0, 3.0, 5.0 and 7.0. The procedure:
Investigating the solution stability of each hydrochloride crystal form of Compound A.
Solutions with pH of 1.0, 3.0, 5.0, and 7.0 solutions were prepared using hydrochloric acid, phosphoric acid, and sodium hydroxide. Appropriate amounts of hydrochloride crystal form I and hydrochloride crystal form II of Compound A were accurately weighed respectively and added to corresponding 20 mL volumetric flasks and labeled, dissolving in media with different pH, passing through a 0.45 µ m organic filters for HPLC analysis. The content changes of the samples from 0-24 hours were monitor, and the results were calculated.

Where [7] appears, read: Mus musculus, half effective dose.

On to `CNC[C@@H]1OCC2(CC2)c2sccc21` (single isomer, unassigned) [Compound A], for which the EC50 stood at 1550 nM on TAAR1 receptor (cAMP agonist assay, cell line stably expressing TAAR1 receptor) and 1040 nM on 5-HT1A receptor (cAMP agonist assay, HEK293 cell line stably expressing 5-HT1A receptor, Forskolin). The “TAAR1 Max Act%” value at TAAR1 receptor (maximum activation rate relative to PEA positive control) is on record as 95.5%. The ED50 in data set [1] (setting [7]) came out at 4.48 mg/kg; in data set [2] (setting [7]) it was 0.45 mg/kg. Besides, the MED in data set [1] (minimum effective dose) was found to be 10 mg/kg; in data set [2] (minimum effective dose) it was 0.1 mg/kg. Further, at 5-HT1A receptor (maximum activation rate relative to Serotonin positive control), the “5-HT1A Max Act%” value amounted to 95.2%.

As for `CNC[C@@H]1OCC2(CC2)c2sccc21` [(R)-1-(4'H,6'H-spiro[cyclopropane-1,7'-thieno[3,2-c]pyran]-4'-yl)-N-methylmethyl-amine], in data set [3], the “AUC(inf)” value is 1452.6 ng·h/mL, the Cmax amounted to 480.3 ng/mL, the Tmax is 30 min and the t1/2 was 3.6 h. In data set [3] (male, ICR, mouse, po), this molecule showed an AUC(0-inf) of 1930 ng·h/mL and a half-life of 168 min. Also, the Cmax in data set [3] (male, ICR, mouse, po, read-out: Cmax) came to 606 ng/mL. Besides, the time to peak (Tmax) in data set [3] (male, mouse, read-out: Tmax) was determined as 30 min. Besides, the concentration in solution in data set [4] (deionized water, 37 °C, water, thermodynamic from solid) (solubility at 24 h) was 155 mg/mL (≈ 740 mM).

On to `CNC[C@@H]1OCC2(CC2)c2sccc21` [Hydrochloride crystal form I of Compound A] [(R)-1-(4'H,6'H-spiro[cyclopropane-1,7'-thieno[3,2-c]pyran]-4'-yl)-N-methylmethyl-amine], for which the “Increase of total impurities (%) day 10” value in data set [5] (High humidity of RH 92.5%), in data set [5] (High temperature of 60°C) and in data set [5] (Illumination of 5000 lx) was less than 0.1% in each case. Besides, the “Increase of total impurities (%) day 20” value in data set [5] (High humidity of RH 92.5%), in data set [5] (High temperature of 60°C) and in data set [5] (Illumination of 5000 lx) was less than 0.1% in each case. The figures for the “Increase of total impurities (%) day 85” value in data set [5] (High humidity of RH 92.5%), in data set [5] (High temperature of 60°C) and in data set [5] (Illumination of 5000 lx) were 0.199%, 0.182% and less than 0.1%, respectively. Also, the solution stability result in data set [6] is “good stability”.

For the molecule `CNC[C@@H]1OCC2(CC2)c2sccc21` [Hydrochloride crystal form II of Compound A] [(R)-1-(4'H,6'H-spiro[cyclopropane-1,7'-thieno[3,2-c]pyran]-4'-yl)-N-methylmethyl-amine], in data set [5] (High humidity of RH 92.5%), the “Increase of total impurities (%) day 10” value is less than 0.1%, the “Increase of total impurities (%) day 20” value is reported as less than 0.1% and the “Increase of total impurities (%) day 85” value is listed as 0.145%. In data set [5] (High temperature of 60°C), the “Increase of total impurities (%) day 10” value was less than 0.1%, the “Increase of total impurities (%) day 20” value is less than 0.1% and the “Increase of total impurities (%) day 85” value is 0.133%. In addition, in data set [5] (Illumination of 5000 lx), the “Increase of total impurities (%) day 10” value is on record as less than 0.1%, the “Increase of total impurities (%) day 20” value was less than 0.1% and the “Increase of total impurities (%) day 85” value is less than 0.1%. The solution stability result in data set [6] is listed as “good stability”. Also, in data set [3], the “AUC(inf)” value stood at 1546.6 ng·h/mL, the Cmax was 488.7 ng/mL, the Tmax is 30 min and the t1/2 is 2.2 h. Besides, in data set [4] (equilibrium solubility in deionized water, 37°C), the Solubility turned out to be 162.30 mg/mL.
